In publication PMC7270175, “Micelle-stabilized Olfactory Receptors for a Bioelectronic Nose Detecting Butter Flavors in Real Fermented Alcoholic Beverages” (Scientific Reports, 2020):

Molecular target: T1, ODR-10 (Caenorhabditis elegans, UniProt Q18807)
T1 construct: ODR-10 in pET-DEST42 (V5 and Ni-column purification tag), E. coli BL21(DE3), SDS-solubilized, reconstituted in DDM/Cymal 6 detergent micelles; also pcDNA3 ODR-10 in HEK-293 cells
T1 sequence (Q18807 1-339): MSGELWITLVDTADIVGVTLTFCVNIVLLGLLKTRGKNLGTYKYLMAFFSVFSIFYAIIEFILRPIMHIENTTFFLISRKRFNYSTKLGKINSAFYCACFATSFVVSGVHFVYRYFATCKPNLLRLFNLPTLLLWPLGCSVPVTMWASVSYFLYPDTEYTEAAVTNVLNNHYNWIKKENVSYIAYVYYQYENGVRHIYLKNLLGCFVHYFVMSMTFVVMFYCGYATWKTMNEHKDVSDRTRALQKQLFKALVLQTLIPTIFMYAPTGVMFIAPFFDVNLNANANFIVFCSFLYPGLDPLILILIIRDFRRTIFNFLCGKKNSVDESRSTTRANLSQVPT
Assay: carbon nanotube FET, Hill fit of conductance response
Type: binding
Settings: read-out: K

Compound CC(=O)C(C)=O [Diacetyl, 2,3-butanedione] has a Kd of roughly 1.7 pM.
